Results published in patent US8895069B2, “Drug delivery system using hyaluronic acid-peptide conjugate micelle” (Postech Academy-Industry Foundation, priority 2011, dated 2014).

How the values were obtained:
[1] = tested on: corneal neovascularization; test: Corneal neovascularization after silver nitrate cauterization (Experimental Example 8); assay type: in vivo, Albino Sprague Dawley male rats; conditions: rat cornea, subconjunctival 20 μL; Avastin 10 mg/ml, peptide and conjugate […] peptide; NV control 90.8±5%
Method: All animal tests including this experiment were conducted in compliance with the guidelines of the Catholic University of Korea and the principles of laboratory animal care; NIH publication No. 85-23 revised in 1985.
The rat was put under anesthesia by an intra-peritoneal injection of a mixed solution of 20 mg/kg of ketamine hydrochloride and 2.5 mg/kg of xylazine hydrochloride. […] In 3 days after the cauterization, subconjunctival administration was conducted with 20 μL of each of 4 sample solutions (a normal control group, NV control (neovascularization control: a control group wherein angiogenesis was made to occur and no drug was treated thereon), a solution comprising Avastin (Roche) dissolved in PBS at a concentration of 10 mg/ml, a solution comprising anti-Flt1 peptide (GGNQWFI) (SEQ ID NO: 3) dissolved in PBS at a concentration of 2.5 mg/ml, and a solution comprising the hyaluronic acid-peptide conjugate with a lower peptide concentration obtained from Preparation Example 3 as dissolved in PBS at a concentration of 2.5 mg/ml based on the content of anti-Flt1 peptide). […] The obtained images were subjected to quantitative analysis with Image J program (Ver. 1.38, National Institute of Health, MD).

[2] = tested on: vascular hyperpermeability due to diabetic retinopathy; test: Vascular hyperpermeability due to diabetic retinopathy, genistein-loaded micelle (Experimental Example 14); assay type: in vivo, Sprague Dawley (SD) male rats
Method: First, each rat was injected intraperitonially with 60 mg/kg of streptozotocin dissolved in 10 mM citrate buffer at pH 4.5 in order for diabetes to be induced. In three days after the injection of streptozotocin, the rat was determined to develop diabetes when its serum concentration of glucose was at least 300 mg/dL. In a week after the injection of streptozotocin, 10 μL of each sample solution was injected into the vitroeus body.

[3] = tested on: corneal neovascularization; test: Corneal neovascularization, genistein-loaded micelle (Experimental Example 13); assay type: in vivo, Albino Sprague Dawley male rats
[4] = tested on: HUVEC (Human Umbilical Vein Endothelial Cell); test: HUVEC proliferation (MTT); assay type: cell-based
Method: An endothelial cell, HUVEC (Human Umbilical Vein Endothelial Cell) (innopharmascreen co. ltd., Korea) was incubated in a EGM®^2 culture medium (Lonza) and then 100 μL of the cell solution with a concentration of 2×10^4/ml was distributed per each well and incubated in a 5% CO2 cultivator at 37° C. for 16 hours. After 16 hours, the culture medium was replaced and seven types of samples were treated. Among the seven types of samples were the control group as treated only with a culture medium, and the groups treated with 50 μM, 100 μM, and 200 μM of genistein solutions and the solutions of the genistein-loaded hyaluronic acid-peptide conjugate of Example 1 comprising 50 μM, 100 μM, and 200 μM of genistein, respectively. 10 μL of each sample and 100 μL of the culture medium were mixed and treated. After the samples were treated, they were incubated in 5% CO2 incubator at 37° C. and the culture media with the samples being mixed therein […] once a day. After three days, the culture media were removed and the samples were treated with 110 μL of an MTT solution (Amresco Co. (Solon, Ohio)), and incubated in a cultivator at 37° C. for two hours and then 50 μL of DMSO was added thereto to measure a light absorbency at 540 nm. The light absorbance as measured was compared with the light absorbance of the control group and the degree of the cell growth was calculated.

[5] = genistein as dispersed in water, 6.2 mg/ml
[6] = genistein as dissolved in DMSO, 6.2 mg/ml

| Compound | average ratio of the neovascular area [1] [%] | average intensity of the fluorescence of retina relative to normal group (1) ([2]; normal = 1, negative control 2.54±0.20, Avastin 10 mg/ml, micelle 3.2 mg/ml peptide, four weeks after streptozotocin) | average ratio of the neovascular area ([3]; rat cornea, samples in PBS: Avastin 10 mg/ml, conjugate and micelle 3.2 mg/ml peptide, control group 86%) [%] | average intensity of the fluorescence of retina relative to normal group (1) [2, 5] | average intensity of the fluorescence of retina relative to normal group (1) [2, 6] | average ratio of the neovascular area [3, 5] [%] | average ratio of the neovascular area [3, 6] [%] | HUVEC growth inhibition, comparison of genistein alone with micelle ([4]; genistein alone at 200 uM versus genistein-loaded micelle at 50 uM) | HUVEC cell number relative to control group (100%) ([4]; genistein concentration 100 μm (so in the source), 3 days, MTT) [%] |
| --- | --- | --- | --- | --- | --- | --- | --- | --- | --- |
| Avastin: Avastin (Roche), positive control | 35.4±6.6 | 1.49±0.17 | 23 | – | – | – | – | – | – |
| O=c1c(-c2ccc(O)cc2)coc2cc(O)cc(O)c12 [genistein] | – | – | – | 2.38±0.20 | 2.00±0.16 | 68 | 38 | inferior to the results obtained from the group treated with the genistein-loaded micelle at its lowest concentration (50 uM) | 70.5±3.5 |
